Source: the supplement of paper PMC10307832

How the values were obtained:
Experiment in all cases: relative viability (nuclei count vs DMSO), 5 days (fraction); higher = more cells survive
BMX-IN-1 + Bortezomib = compound: C=CC(=O)Nc1cc(-n2c(=O)ccc3cnc4ccc(-c5ccc(NS(C)(=O)=O)cc5)cc4c32)ccc1C [BMX-IN-1] + CC(C)C[C@H](NC(=O)[C@H](Cc1ccccc1)NC(=O)c1cnccn1)B(O)O [Bortezomib] (partner 0.002 µM)
Summary of the method: (§1)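 Relative viability was taken as the ratio of nuclei in treated wells to nuclei in vehicle wells. Lung cancer cell lines in 1536-well plates received compounds by pin tool one day after seeding, either one drug alone or a fixed anchor-drug dose plus five library-drug doses (not always all listed) in √10 steps. Nuclei were counted on 4× images after 5 days of treatment, and values are medians of duplicate plates.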

BMX-IN-1 + Tozasertib = compound: C=CC(=O)Nc1cc(-n2c(=O)ccc3cnc4ccc(-c5ccc(NS(C)(=O)=O)cc5)cc4c32)ccc1C [BMX-IN-1] + Cc1cc(Nc2cc(N3CCN(C)CC3)nc(Sc3ccc(NC(=O)C4CC4)cc3)n2)n[nH]1 [Tozasertib] (partner 0.1 µM)
Summary of the method: as §1

PAC-1 + Navitoclax = compound: C=CCc1cccc(/C=N/NC(=O)CN2CCN(Cc3ccccc3)CC2)c1O [PAC-1] + CC1(C)CCC(c2ccc(Cl)cc2)=C(CN2CCN(c3ccc(C(=O)NS(=O)(=O)c4ccc(N[C@H](CCN5CCOCC5)CSc5ccccc5)c(S(=O)(=O)C(F)(F)F)c4)cc3)CC2)C1 [Navitoclax] (partner 0.5 µM)
Summary of the method: as §1

PAC-1 + Pemetrexed = compound: C=CCc1cccc(/C=N/NC(=O)CN2CCN(Cc3ccccc3)CC2)c1O [PAC-1] + Nc1nc2[nH]cc(CCc3ccc(C(=O)N[C@@H](CCC(=O)O)C(=O)O)cc3)c2c(=O)[nH]1 [Pemetrexed] (partner 0.2 µM)
Summary of the method: as §1

PAC-1 + Decitabine = compound: C=CCc1cccc(/C=N/NC(=O)CN2CCN(Cc3ccccc3)CC2)c1O [PAC-1] + Nc1ncn([C@H]2C[C@H](O)[C@@H](CO)O2)c(=O)n1 [Decitabine] (partner 2 µM)
Summary of the method: as §1

Cell Line	relative viability (BMX-IN-1 + Bortezomib; first compound 0.02 µM)	relative viability (BMX-IN-1 + Bortezomib; first compound 0.2 µM)	relative viability (BMX-IN-1 + Bortezomib; first compound 0.6325 µM)	relative viability (BMX-IN-1 + Bortezomib; first compound 2 µM)	relative viability (BMX-IN-1 + Tozasertib; first compound 0.02 µM)	relative viability (BMX-IN-1 + Tozasertib; first compound 0.2 µM)	relative viability (BMX-IN-1 + Tozasertib; first compound 0.6325 µM)	relative viability (BMX-IN-1 + Tozasertib; first compound 2 µM)	relative viability (PAC-1 + Navitoclax; first compound 0.02 µM)	relative viability (PAC-1 + Navitoclax; first compound 0.06325 µM)	relative viability (PAC-1 + Navitoclax; first compound 0.2 µM)	relative viability (PAC-1 + Navitoclax; first compound 2 µM)	relative viability (PAC-1 + Pemetrexed; first compound 0.02 µM)	relative viability (PAC-1 + Pemetrexed; first compound 0.06325 µM)	relative viability (PAC-1 + Pemetrexed; first compound 0.2 µM)	relative viability (PAC-1 + Pemetrexed; first compound 2 µM)	relative viability (PAC-1 + Decitabine; first compound 0.02 µM)	relative viability (PAC-1 + Decitabine; first compound 0.06325 µM)	relative viability (PAC-1 + Decitabine; first compound 0.2 µM)	relative viability (PAC-1 + Decitabine; first compound 2 µM)
NCI-H2126	1.13	1.17	1.19	1.19	1.03	0.947	0.867	0.829	0.884	0.886	0.87	0.854	0.679	0.722	0.755	0.654	0.589	0.584	0.541	0.612
NCI-H1651	0.959	1.06	0.921	0.951	0.848	1	0.735	0.731	0.924	1.12	1.06	1.09	0.596	0.538	0.525	0.712	0.649	0.552	0.39	0.675
NCI-H1734	1.05	1.24	0.964	1.17	0.292	0.285	0.256	0.229	0.826	0.832	0.813	0.881	0.379	0.427	0.418	0.419	0.52	0.554	0.37	0.462
NCI-H1915	1.31	1.14	1.08	0.994	0.438	0.586	0.504	0.445	0.449	0.794	0.751	0.767	0.552	0.471	0.471	0.473	0.266	0.253	0.245	0.27
NCI-H2023	1.21	1.19	1.27	1.08	0.363	0.43	0.434	0.333	0.981	0.963	0.953	1.02	0.211	0.215	0.244	0.229	0.216	0.217	0.182	0.182
NCI-H1755	0.971	1	1	0.987	0.493	0.578	0.577	0.519	0.959	0.954	0.986	0.989	0.442	0.43	0.448	0.441	0.764	0.712	0.675	0.732
EPLC-272H	1.28	1.09	0.872	0.887	0.218	0.222	0.279	0.245		1.09	1	1.04	0.355	0.32	0.341	0.348	0.369	0.39	0.342	0.324
HCC-827	1.11	1.09	1.16	1.11	0.524	0.434	0.415	0.442	1.04	0.986	0.983	0.989	0.275	0.259	0.256	0.256	0.354	0.285	0.277	0.292
